Columns and labels:
[1] = system: MM; settings: cited from earlier work
[2] = system: c-Myc; assay: Immunoblotting of degronimid-treated MM.1S cells: c-Myc; assay type: cell-based, human; settings: 0.01-1 μM, 4 h
Procedure: MM.1S cells were seeded in 6-well plates at 3×10^6 cells/well (˜24 h prior to addition of drug). […] Cell pellets were thawed on ice, lysed using RIPA buffer (ThermoFisher) with protease/phosphatase inhibitor cocktail (Cell Signal Technology, Danvers, Mass.) by incubating on ice 30 min. The lysates were clarified by spinning at 10,000 g for 10 min at 4° C. and the concentration of the lysate was determined using BCA protocol (ThermoFisher). Samples were prepared for Western blot using LDS sample buffer (NuPage, Invitrogen, Carlsbad, Calif., USA) with sample reducing agent (NuPage, Invitrogen) and heated to 95° C. for 5 min. Samples were loaded (20 ug/sample) into Tris-acetate or Bis-Tris gels (NuPage, Invitrogen) and run as per kit instructions using appropriate running buffers. Gels were transferred as described (Matthews et al., 2015) onto PVDF membrane using SDS-based transfer buffer (NuPage, Invitrogen). Membranes were blocked (5% skim milk; or 5% bovine serum albumin in TBS-T) for at least 30 min then probed with primary antibodies overnight (4° C.). […] Each protein of interest (BRD2, BRD3, BRD4, c-myc and CDK9) was assessed in a separate gel and corresponding membrane (which was simultaneously incubated with antibodies for both the target protein of interest and GAPDH, to provide a loading control within the same blot). […]

[3] = system: MM.1S cells; assay: CTG viability of CRISPR-edited MM.1S pools tolerant to bortezomib or JQ1; assay type: cell-based, human; settings: after genome-scale gene editing and treatment with JQ1 (500 nM) or bortezomib (25 nM)
Procedure: Cell viability and growth of human MM cell lines were assessed using CellTitre-Glo (CTG) assay (Promega, Madison, Wis.) per kit instructions, or CS-BLI as described (Delmore et al., 2011). Briefly, cells were seeded (5×10^3 cells/well) into 96- or 384-well opaque plates, in supplemented media (40 or 50 uL) and incubated for 24 h prior to addition of drug. For co-culture experiments, HS27A cells were pre-seeded (5×10^3 cells/well) into each well in media prior (24 h) to the addition of MM cells. At each time point (24 h, 48 h, and/or 72 h) CTG reagent (10% volume) was added to each well, and plates were read using a microplate reader (BioTek Synergy 2, BioTek, Winooski, Va.).
(§1) iii. […] Following treatments, all cells were serially cultured without drug and allowed to regrow for as long as required to enable reseeding (60×10^6 cells per flask, 100 mL) and retreatment with individual drugs while maintaining ˜1000× coverage throughout. Concomitant with retreatment, remaining cells were frozen (−80° C.; 20% FBS/DMSO) for later analysis or assessed for drug resistance/sensitivity using CTG assays. Between treatments, and in order to maintain the health of cultures, dead cells were periodically removed using Ficoll centrifugation (1,500 rpm for 10-20 min). For all CRISPR drug treatment experiments, aliquots of MM.1S-Cas9+ cells transduced with the GeCKO(Sanjana et al., 2014; Shalem et al., 2014) or Brunello (Doench et al., 2016) sgRNA libraries were frozen immediately prior to experimentation to determine the baseline distribution of sgRNAs in the cell population.

[4] = system: pools of MM cells; assay: Sequential exposure to CRBN- and VHL-based degraders, CTG; assay type: cell-based, human; settings: compared to treatment-naïve cells
Text: We addressed this question using pools of MM cells derived from several of our genome-scale CRISPR-based screens.

[5] = system: MM.1S-Cas9+ cells; assay: Genome-scale CRISPR/Cas9 gene editing (LOF) resistance screens; assay type: cell-based, human; settings: long-term treatment; NGS of sgRNAs
Procedure: MM.1S cells transduced with lentiviral construct for SpCas9 were kindly provided from Quinlan Sievers (Ebert Lab, BWH/DFCI). MM.1S cells were also transduced with lentiviral construct for dCas9-VP64 (purchased from Addgene).
ii. Lentiviral transductions with sgRNA libraries: For the screen with the GECKOv2 sgRNA library, tumor cell transductions were performed in batches of 8×10^7 cells per sub-library for each replicate. Cells were incubated for 16 hrs in cell medium containing polybrene (2 μg/mL; Santa Cruz Biotechnology), 10 mM HEPES (pH 7.4) (Sigma-Aldrich) and viral prep (4 mL) diluted to achieve an MOI of 0.4. After the end of the incubation with the viral preps, cells were washed and incubated for an additional day. Transduced cells were cultured at an initial density of 1×10^6 cells/mL and were treated with puromycin (1 μg/mL) for up to 14 days immediately after transduction. After puromycin selection, MM.1S-Cas9^+ cells transduced with each GeCKOv2 sublibrary were plated at 60×10^6 cells per flask (T175, 100 mL) to enable coverage of ˜1000× and were sub-cultured at four to five-day intervals to prevent confluence. At each passage, cells were harvested, washed with PBS (Corning, N.Y.), pelleted (5000 rpm, 5 min, 4° C.) and frozen as cell pellets (−80° C.) for next generation sequencing, and also replated at 60×10^6 cells to maintain 1000× coverage.
For the genome-scale screens with the Brunello sgRNA library, tumor cell transductions were performed in batches of 5×10^7 cells per library for six replicates. Cells were incubated (18 h) in cell medium containing polybrene (5 μg/mL; Santa Cruz Biotechnology), 10 mM HEPES (pH 7.4) (Sigma-Aldrich) and viral prep (30 mL) diluted 1:1. Transduced cells were cultured at an initial density of 1×10^6 cells/mL and were treated with puromycin (1 μg/mL) for up to 5 days additional two days from transduction. After stable transduction, pooled MM.1S cells were plated at 40×10^6 cells per flask (T175, 100 mL) to enable coverage of 500× and were sub-cultured at three- to four day intervals to prevent confluence. At each passage, cells were harvested, washed with PBS (Corning), pelleted (5000 rpm, 5 min, 4° C.) and frozen as cell pellets (−80° C.) for next generation sequencing, and also replated at 40×10^6 cells (˜500× coverage).
as §1
For “long-term” treatment screens with Thal-SNS-032-, ARV-771- and MZ-1-resistant cells, we continuously treated MM.1S-Cas9+ cells (40×10^6, —500× coverage) transduced with the Brunello sgRNA library (4 weeks post-puromycin selection) with either each compound's (IC20) or vehicle control. Cells were serially passaged every 3-4 days to prevent confluence, each time replating at ˜500× coverage (100 mL) at the same time replenishing each compound or vehicle. Drug treatments were paused if cell numbers fell below 10×10^6 per flask, allowing cells to recover and regrow, and treatments were resumed at a lower concentration when cell numbers reached 40×10^6. At each passage, cells were assayed for drug sensitivity/resistance using CTG. […]

[6] = system: MM.1S Cas9+ cells; assay: Dose-response assay of cells with individual sgRNA knock-outs, CTG; assay type: cell-based, human; settings: compared to parental MM.1S cells
Procedure: Non-targeting control sgRNAs and COPS7B sgRNAs were from GeCKOv2. Four sgRNAs were generated per each gene, except from COPS7B, for which 6 sgRNAs were available (Table S2). All sgRNAs were synthesized by CustomArray Inc (Bothell, Wash.). Cloning was performed according to the protocol published by Zhang et al. (media.addgene.org/cms/filer_public/4f/ab/4fabc269-56e2-4ba5-92bd-09dc89c1e862/zhang_lenticrisprv2_and_lentiguide_oligo_cloning_protocol_1.pdf) using a pHKO9 vector. Briefly, to clone the sgRNA guide sequence, plasmids were digested with BsmBI (New England Biolabs, Ipswich, Mass.) at 55° C. for 1 hour. Oligonucleotides for each sgRNA guide sequence were annealed and phosphorylated using T4 Ligation Buffer and T4 polynucleotide kinase (New England Biolabs) at 37° C. for 30 minutes and then annealed by heating to 95° C. for 5 minutes and cooling to 25° C. at 1.5° C./minute. Using T4 ligation buffer and T4 ligase (New England Biolabs), annealed oligos were ligated into gel purified vectors (Qiagen) at 65° C. for 10 minutes. 2.5 ug of the ligation product were transformed in 30 uL E. coli electrocompetent cells (Lucigen E.cloni 10 G ELITE PLUS, Invitrogen). Subsequently, 500 uL of transformed cells were plated on LB Agar-AmpR (ThermoFisher Scientific) and incubated overnight at 37° C. Three colonies per plate were then picked and inoculated in a mini-prep culture (Qiagen). The product was then digested with BsmBI and XhoI (New England Biolabs) at 37° C. for 1 h and compared to the uncut control on 1% agarose gel. One out of three colonies (10 uL) was then precultured in 3 mL LB Broth-AmpR and shaken at 37° C. for 6 h. Afterwards it was transferred to a 250 mL LB Broth-AmpR flask and incubated overnight at 37° C. Each culture was then inoculated into a maxiprep culture (Qiagen).
Also, CRBN, VHL, TCEBJ, TCEB2, UBE2R2 and FBXW2 sgRNA are selected from Brunello library and cloned using pLVX-hyg-sgRNA1 Vector system (Takara Bio USA, CA) according to the manufacturer's manual. b(takarabio.com/assets/documents/User %20Manual/Lenti-X_CRISPR-Cas9_System_User_Manual_121316.pdf)
ii. Lentiviral transductions with constructs for individual sgRNAs: 500×10^3 to 1×10^6 MM.1S Cas9 cells were plated in 50 uL of complete RPMI1640 medium per well in a 24-well plate, and additional 100 uL of complete RPMI1640 medium were added to cover the well completely. Cells were incubated in cell medium containing polybrene (5 to 8 μg/mL; Santa Cruz Biotechnology), and viral prep. 24 hours after addition of viral preps, media were changed and, after another 48 h, puromycin selection (1 to 2 ug/ml per well) was started. After 7 days of puromycin selection, transduced MM.1S Cas9+ cells were collected and expanded in T75 flasks.
iii. […] In the case of Thal-SNS-032 or ARV771, cells are plated 384-well plate and treated each concentration described at figure and viability assays were performed at 72 hrs.

Row | Compound | induction of apoptosis ([1]; most cell types tested) | anti-tumor activity ([1]; preclinical in vitro and in vivo models of MM) | c-Myc protein levels [2] | responsiveness of drug-exposed pools to the same agent [3] | shift of dose response curve in pools previously exposed to CRBN-based degraders [4] | sgRNA enrichment in resistant cells, long-term screen [5] | response of cells with sgRNAs against COPS7B or COPS8 [6]
1 | Cc1sc2c(c1C)C(c1ccc(Cl)cc1)=N[C@@H](CC(=O)OC(C)(C)C)c1nnc(C)n1-2 [JQ1] | does not induce apoptosis in most cell types tested | has anti-tumor activity | less pronounced depletion of c-Myc | decreased responsiveness | – | – | –
2 | Cc1ncsc1-c1ccc(CNC(=O)[C@@H]2C[C@@H](O)CN2C(=O)[C@@H](NC(=O)COCCOCCOCCNC(=O)C[C@@H]2N=C(c3ccc(Cl)cc3)c3c(sc(C)c3C)-n3c(C)nnc32)C(C)(C)C)cc1 [MZ-1] | – | – | – | – | limited, if any, shift | enrichment of sgRNAs for CUL2, VHL itself | decreased response
3 | CC(C)C[C@H](NC(=O)[C@H](Cc1ccccc1)NC(=O)c1cnccn1)B(O)O [bortezomib] | – | – | – | decreased responsiveness | – | – | –

Reference: patent publication US20220288051A1, “METHODS FOR TREATING CANCER USING SERIAL ADMINISTRATION OF E3 UBIQUITIN LIGASE DEGRADERS” (Dana-Farber Cancer Institute, Inc., priority 2019, published 2022)
